Structures can show the parent of a compound that is named as a salt.
Columns and labels:
[1] = cited from earlier work; for cooling action: J. Soc. Cosmet. Chem. 1978, 29, 185-200, study of approximately 1200 compounds
[2] = test system: panel of sensorially trained experts; test: Sensorial assessment of toothpastes containing the flavourings (Examples S-1 to S-4); format: in vivo, human; details: flavouring 1.2 wt. % in toothpaste base, usage conditions
Protocol: The flavourings obtained in this way were worked into a standard silica toothpaste base in a concentration of 1.2 wt. %. The toothpastes were tested by a panel of sensorially trained experts under usage conditions. The sensorial assessments were as follows: very pleasant, rich and voluminous minty freshness with a comparatively fast onset, strong and marked and comparatively very long-lasting cooling fresh impression, wherein it was noticeable that the sensation of coldness was rapidly perceptible in the whole of the oral cavity. Additionally the flavour was assessed as being softer and more neutral and less sharp than without the compounds according to the invention.
The flavourings in a concentration of 1.2% were worked into a toothpaste base comprising an amount of 65% of sodium bicarbonate. The toothpastes were tested under usage conditions and assessed by a panel of sensorially trained experts. In each case a pleasant, powerful spearmint flavour in combination with a voluminous and long-lasting fresh taste was noted.
The flavourings obtained in this way were in each case worked into a standard silica toothpaste base in a concentration of 1.2 wt. %. The toothpastes were tested by a panel of sensorially trained experts under usage conditions. […]

[3] = biological target: human TRPM8 receptor (Homo sapiens (Human), UniProt Q7Z2W7); test: Assay on TRPM8 modulators (Ca2+-sensitive dye, HEK293-TRPM8 test cells, EC50 determination); format: cell-based; details: assay according to reference example 3
Description: As a test cell system the human TRPM8 DNA (see plasmid pInd-M8 above) was used to prepare a stable transfixed HEK293 cell line. Here preference is for HEK293 which via the plasmid introduced offers the possibility of induction of the TRPM8 expression by means of tetracycline.
The agonisation or antagonisation of the receptor can be quantified by means of a Ca^2+-sensitive dye (e.g. FURA, Fluo-4, etc.).
To begin with, in a manner known per se, in cell culture flasks a fresh culture of transformed HEK cells is prepared. The HEK293-TRPM8 test cells are removed using trypsin from the cell culture flasks and 40 000 cells/well are sown with 100 μl medium in 96-well plates (Greiner #655948 Poly-D-lysine coated). In order to induce the TRPM8 receptor the growth medium tetracycline is mixed in (DMEM/HG, 10% FCS tetracycline-free, 4 mM L-glutamine, 15 μg/ml blasticidin, 100 μg/ml hygromycin B, 1 μg/ml tetracycline). The next day the cells are charged with Fluo-4Am dye and the test is performed.
The test substances are used in triplicate in concentrations of between 0.1 and 200 μm in the assay. Normally the compounds are kept ready in DMSO solutions and diluted for the assay to a maximum DMSO concentration of 2%.

Sequence of human TRPM8 receptor (Q7Z2W7 whole entry): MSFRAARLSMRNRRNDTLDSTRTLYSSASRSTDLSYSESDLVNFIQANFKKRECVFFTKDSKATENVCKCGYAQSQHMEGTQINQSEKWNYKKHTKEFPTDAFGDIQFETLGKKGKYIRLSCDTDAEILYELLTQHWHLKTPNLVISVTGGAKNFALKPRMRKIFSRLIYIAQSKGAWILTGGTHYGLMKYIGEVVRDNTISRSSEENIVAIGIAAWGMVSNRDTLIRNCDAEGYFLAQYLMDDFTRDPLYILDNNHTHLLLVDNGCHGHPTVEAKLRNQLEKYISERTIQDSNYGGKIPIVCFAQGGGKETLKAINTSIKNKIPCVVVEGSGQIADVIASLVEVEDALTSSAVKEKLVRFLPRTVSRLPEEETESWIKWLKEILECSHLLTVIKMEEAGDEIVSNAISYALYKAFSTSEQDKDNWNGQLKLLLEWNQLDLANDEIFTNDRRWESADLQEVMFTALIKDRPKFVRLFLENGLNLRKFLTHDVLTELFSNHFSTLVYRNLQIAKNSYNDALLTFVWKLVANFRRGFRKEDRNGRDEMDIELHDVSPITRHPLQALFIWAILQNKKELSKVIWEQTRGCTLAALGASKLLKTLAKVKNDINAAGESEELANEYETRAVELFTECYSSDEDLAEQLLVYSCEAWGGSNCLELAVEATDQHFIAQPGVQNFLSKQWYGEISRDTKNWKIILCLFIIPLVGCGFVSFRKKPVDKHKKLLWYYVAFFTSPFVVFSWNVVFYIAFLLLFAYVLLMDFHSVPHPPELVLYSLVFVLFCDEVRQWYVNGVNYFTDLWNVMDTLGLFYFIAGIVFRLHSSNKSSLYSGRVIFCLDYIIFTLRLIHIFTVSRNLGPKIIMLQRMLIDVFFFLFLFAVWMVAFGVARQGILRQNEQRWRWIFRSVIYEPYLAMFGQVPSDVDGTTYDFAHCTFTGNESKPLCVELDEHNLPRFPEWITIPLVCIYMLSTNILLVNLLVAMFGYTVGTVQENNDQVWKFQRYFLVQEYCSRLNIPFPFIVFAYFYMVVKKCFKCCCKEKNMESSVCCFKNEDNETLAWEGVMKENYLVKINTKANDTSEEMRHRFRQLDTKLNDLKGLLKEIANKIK

**Q.** For CC1CCC(C(C)C)C(C(=O)NCC(=O)O)C1 [N^α-(L-menthanecarbonyl)glycine], which cooling action [1] is on record?
**A.** The cooling action was “very weak cooling action”.

**Q.** For CCOC(=O)CNC(=O)C1CC(C)CCC1C(C)C (stereo not drawn) [WS5, N-[[5-methyl-2-(1-methylethyl)cyclohexyl]carbonyl]glycine ethyl ester], which cooling action [1] is on record?
**A.** The cooling action was “most strongly cooling active ingredients”.

**Q.** What about the irritancy ([1]; US 2005/0222256) of the same molecule?
**A.** The irritancy was “strongly irritant”.

**Q.** Which results are given for CCNC(=O)C1CC(C)CCC1C(C)C (stereo not drawn) [WS-3, menthane-3-carboxylic acid-N-ethylamide]?
**A.** cooling action [1]: most strongly cooling active ingredients; sensorial assessment of cooling fresh impression [2]: less powerful, less voluminous and less long-lasting

**Q.** For COc1cnc(-c2ccccn2)nc1NC(C)C [Compound 2-16, Isopropyl-(5-methoxy-2-pyridin-2-yl-pyrimidin-4-yl)-ammonium fumarate], which EC50 ([3]; Table B, structure type 2) is on record?
**A.** Its EC50 is 1600 nM.

**Q.** Which EC50 ([3]; Table C, structure type 3) does the source give for CCCCN(C(=O)/C=C/c1ccc2c(c1)OCO2)c1ccccc1 [Compound 3-9] here?
**A.** Its EC50 is 700 nM.

**Q.** With CCCN(C(=O)/C=C/c1ccc2c(c1)OCO2)c1ccccc1 [Compound 3-7] as the molecule, how does the EC50 ([3]; Table C, structure type 3) read?
**A.** Its EC50 is 1100 nM.

**Q.** For COCC(C)Nc1nc(-c2ccccn2)ncc1OC (stereo not drawn) [Compound 2-10], which EC50 ([3]; Table B, structure type 2) is on record?
**A.** The EC50 was 2200 nM.

**Q.** With O=C(/C=C/c1ccccc1Cl)N(c1ccccn1)C1CCCCC1 [Compound 3-41] as the molecule, how does the EC50 ([3]; Table C, structure type 3) read?
**A.** Its EC50 is 700 nM.

**Q.** Which EC50 ([3]; Table A, structure type 1) does the source give for CC1OC(=O)C2=C1N1CCc3ccccc3C1CC21SCCS1 (stereo not drawn) [Compound 1-3, 5,6,10b,11-tetrahydro-3-methyl-spiro[12H-benzo[a]furo[3,4-f]quinolizin-12,2′-[1,3]dithiolan]-1(3H)one] here?
**A.** The EC50 was 700 nM.

**Q.** With Cc1ccc(/C=C/C(=O)N(C2CCCCC2)C2CCCCC2)cc1 [Compound 3-33] as the molecule, how does the EC50 ([3]; Table C, structure type 3) read?
**A.** The EC50 was 2100 nM.

Reference: patent US10584134B2, “Use of physiological cooling active ingredients, and agents containing such active ingredients” (SYMRISE AG, priority 2009, dated 2020)
